The term Ki denotes a dissociation constant, usually derived from enzyme kinetics or from competition with a known ligand.

Experimental findings from patent US12344614B2, “Benzodiazepine derivatives as GABA a GAMMA1 PAM” (Hoffmann-La Roche Inc., priority 2021, dated 2025) are described below.

The structures appear in SMILES notation. Like-named read-outs stand apart in the source and are kept apart here.

Assay [1] addresses human GABAA α1β3γ2 receptor (Homo sapiens (Human), UniProt P14867+P18507). Put plainly: Radioligand binding assay, competition for [3H]Flumazenil, HEK293F cells. The note with it: for γ2/γ1 Selectivity Ratio: Ki α1β3γ2 (nM)/Ki α2β2γ1 (nM); for LogSel: Log[Ki α1β3γ2 (nM)/Ki α2β2γ1 (nM)]. As for the experimental part:
The affinity of compounds at GABAA γ2 subunit-containing receptors was measured by competition for [^3H]Flumazenil (81.1 Ci/mmol; Roche) binding to HEK293F cells expressing human (transiently transfected) receptors of composition α1β3γ2.
Harvested pellets from HEK293F cells expressing the different GABAA γ2 receptor subtypes were resuspended in Mannitol Buffer pH 7.2-7.4 and processed as described above for the cells expressing the GABAA γ1 subunit-containing receptors.
Assays were incubated to equilibrium for 1 hour at 4° C. and harvested onto GF/C uni-filters (Packard) by filtration using a Packard harvester and washing with ice-cold wash buffer (50 mM Tris; pH 7.5). After anhydrousing, filter-retained radioactivity was detected by liquid scintillation counting. Ki values were calculated using Excel-Fit (Microsoft) and are the means of two determinations.

Assay [2] addresses human GABAA α2β2γ1 receptor (Homo sapiens (Human), UniProt P47869+Q8N1C3). Description: Radioligand binding assay, competition for [3H]RO7239181, membranes from HEK293F cells. As for the experimental part: The affinity of compounds at GABAA γ1 subunit-containing receptors was measured by competition for [^3H]RO7239181 (67.3 Ci/mmol; Roche) binding to membranes from HEK293F cells (ThermoFisher R79007) expressing human (transiently transfected) receptors of composition α5β2γ1, α2β2γ1, α1β2γ1.
Harvested pellets from HEK293F cells expressing the different GABAA receptor subtypes were resuspended in Mannitol Buffer pH 7.2-7.4 (Mannitol 0.29M, Triethylamine 10 mM, Acetic acid 10 mM, EDTA 1 mM plus protease inhibitors (20 tablets Complete, Roche Diagnostics Cat. No. 05 056 489 001 per liter)), washed two times and then resuspended at 1:10 to 1:15 dilution in the same buffer. Cell disruption was performed by stirring the suspension in a Parr vessel #4637 at 435 psi for 15 minutes, and then the suspensions were centrifuged at 1000×g for 15 minutes at 4° C. (Beckman Avanti J-HC; rotor JS-4.2). The supernatant (S1) was transferred in a 21 Schott flask and the pellet (P1) was resuspended with Mannitol Buffer up to 175 ml. The resuspended pellet was transferred into a 250 ml Corning centrifugal beaker and centrifuged at 1500×g for 10 minutes at 4° C. (Beckman Avanti J-HC; rotor JS-4.2). The supernatant (S1) was then transferred in the 21 Schott flask and the pellet was discarded. The supernatants (S1) were centrifuged in 500 ml Beckman polypropylene centrifugal beaker at 15′000×g for 30 minutes at 4° C. (Beckman Avanti J-20 XP; rotor JLA-10.500). The pellet (P2) was resuspended with Mannitol Buffer 1:1 and frozen at −80° C. The supernatant (S2) was centrifuged in 100 ml Beckman polypropylene centrifugal tubes at 48000×g for 50 minutes at 4° C. (Beckman Avanti J-20 XP; rotor JA-18). The supernatant (S3) was discarded and the pellet (P3) was resuspended with 1:1 Mannitol Buffer. The P2 and P3 protein concentration was determined with the BIORAD Standard assay method with bovine serum albumin as standard and measured on the NANO-Drop 1000. The membrane suspension was aliquots (500 μl per tube) and stored at −80° C. until required.
Membrane homogenates were resuspended and polytronised (Polytron PT1200E Kinematica AG) in Potassium Phosphate 10 mM, KCl 100 mM binding buffer at pH 7.4 to a final assay concentration determined with a previous experiment.
Assays were incubated to equilibrium for 1 hour at 4° C. and then, membranes were filtered onto unifilter (96-well white microplate with bonded GF/C filters preincubated 20-50 minutes in 0.3% Polyethylenimine) with a Filtermate 196 harvester (Packard BioScience) and washed 4 times with cold Potassium Phosphate 10 mM pH 7.4, KCl 100 mM binding buffer. After anhydrousing, filter-retained radioactivity was detected by liquid scintillation counting. Ki values were calculated using Excel-Fit (Microsoft) and are the means of two determinations.

The target of a further assay is h-GABA-A α2β2γ1 receptor (Homo sapiens (Human), UniProt P47869+Q8N1C3). Put plainly: Two-electrode voltage clamp electrophysiology in Xenopus oocytes expressing GABAA receptors. The format is cell-based. The note with it: for Efficacy (GABA) %: % modulation of GABA EC20 = 100*(Fold increase−1), compound at 30-fold Ki α2β2γ1; for Fold increase h-GABA-A α2β2γ1 oocyte @ 30-fold Ki: Xenopus oocytes, GABA EC20, test compound at approx. 30-fold its Ki α2β2γ1. As for the experimental part: Xenopus laevis oocytes at maturation stages V-VI were used for the expression of cloned mRNA encoding GABAA receptor subunits. Oocytes ready for RNA micro-injection were bought from Ecocyte, Castrop-Rauxel, Germany and stored in modified Barth's medium (composition in mM: NaCl 88, KCl 1, NaHCO3 2.4, HEPES 10, MgSO4 0.82, CaNO3 0.33, CaCl2 0.33, pH=7.5) at 20° C. until the experiment.
Oocytes were plated in 96-well plates for microinjection using the Roboinject automated instrument (MultiChannelSystems, Reutlingen, Germany). Approximately 50 nL of an aqueous solution containing the RNA transcripts for the subunits of the desired GABAA receptor subtype was injected into each oocyte. […] Oocytes were kept in modified Barth's medium (composition in mM: NaCl 88, KCl 1, NaHCO3 4, HEPES 10, MgSO4 0.82, CaNO3 0.33, CaCl, 0.33, pH=7.5) at 20° C. until the experiment.
Electrophysiological experiments were performed using the Roboocyte instrument (MultiChannelSystems, Reutlingen, Germany) on days 3 to 5 after the micro-injection of mRNA. During the experiment the oocytes were constantly superfused by a solution containing (in mM) NaCl 90, KCl 1, HEPES 5, MgCl2 1, CaCl2 1 (pH 7.4). Oocytes were impaled by two glass microelectrodes (resistance: 0.5-0.8 MΩ) which were filled with a solution containing KCl 1M+K-acetate 1.5 M and voltage-clamped to −80 mV. The recordings were performed at room temperature using the Roboocyte two-electrode voltage clamp system (Multichannelsystem). After an initial equilibration period of 1.5 min GABA was added for 1.5 min at a concentration evoking approximately 20% of a maximal current response (EC2O). After another rest interval of 2.5 min GABA was again added evoking a response of similar amplitude and shape. […] Current traces were recorded at a digitization rate of 10 Hz during and shortly before and after the GABA application.
Each compound and concentration was tested on at least 3 oocytes. Different oocytes were used for different compound concentrations.
For the analysis, the digitized current traces of the first and second GABA response were superimposed and, if necessary, rescaled to equal maximal amplitudes. The ratio between the two responses during the time interval of test compound application was calculated point by point. The extremum of the resulting “ratio trace” was taken as the efficacy (“Fold increase”) of the compound expressed as “% modulation of GABA EC20” (100*(Fold increase−1)).
Background: Two-electrode voltage clamp is typically applied to oocytes expressing channels or transporters.

Setting [3] is: read-out: Ki h-GABAA α2β2γ1, [3H]RO7239181 20-30 nM, HEK293F membranes, 1 hour at 4° C., mean of two determinations.

For `COC1CN(C(=O)c2ncn3c2CN=C(c2cc(O)ccc2F)c2c-3ccc(C(F)(F)F)c2Cl)C1` [Example 15, [7-chloro-6-(2-fluoro-5-hydroxy-phenyl)-8-(trifluoromethyl)-4H-imidazo[1,5-a][1,4]benzodiazepin-3-yl]-(3-methoxyazetidin-1-yl)methanone], in assay [1], affinity was put at a Ki of 0.121 µM, the “γ2/γ1 Selectivity Ratio” value was found to be 28.9 and the LogSel was determined as 1.46. This molecule also registered a Ki in assay [2] of 0.00418 µM. In assay [2] (setting [3]), the inhibitory constant (Ki) was found to be 0.00418 µM. Moreover, at h-GABA-A α2β2γ1 receptor, the “Efficacy (GABA) %” value turned out to be 80% and the “Fold increase h-GABA-A α2β2γ1 oocyte @ 30-fold Ki” value is given as 1.80.
On to `C[C@@H]1N=C(c2cc(O)ccc2F)c2c(ccc(Cl)c2Cl)-n2ccc(=O)nc21` [Example 5, (5S)-8,9-dichloro-7-(2-fluoro-5-hydroxy-phenyl)-5-methyl-5H-pyrimido[1,2-a][1,4]benzodiazepin-3-one], for which, in assay [1], the inhibition constant (Ki) was found to be 0.255 µM, the “γ2/γ1 Selectivity Ratio” value stood at 182.4 and the LogSel turned out to be 2.26. Also, the Ki in assay [2] was 0.0014 µM. For the same molecule, the Ki in assay [2] (setting [3]) was determined as 0.0014 µM. For the same molecule, on h-GABA-A α2β2γ1 receptor, the “Efficacy (GABA) %” value came to 46% and the “Fold increase h-GABA-A α2β2γ1 oocyte @ 30-fold Ki” value was 1.46.
Turning to `Cc1nnc2n1-c1ccc(C(F)(F)F)c(Cl)c1C(c1nc(O)ccc1Cl)=N[C@H]2C` [Example 22, 5-chloro-6-[(4S)-7-chloro-1,4-dimethyl-8-(trifluoromethyl)-4H-[1,2,4]triazolo[4,3-a][1,4]benzodiazepin-6-yl]pyridin-2-ol], in assay [1], affinity was put at a Ki of 9.69 µM, the “γ2/γ1 Selectivity Ratio” value came to 704.8 and the LogSel was determined as 2.85. The molecule also gave a Ki in assay [2] of 0.0137 µM. Further, the Ki in assay [2] (setting [3]) came to 0.0137 µM. Besides, at h-GABA-A α2β2γ1 receptor, the “Efficacy (GABA) %” value was 84% and the “Fold increase h-GABA-A α2β2γ1 oocyte @ 30-fold Ki” value amounted to 1.84.
Turning to `C[C@@H]1N=C(c2nc(O)ccc2F)c2c(ccc(C(F)(F)F)c2Cl)-n2cc(C(=O)N3CCC3)nc21` [Example 30, azetidin-1-yl-[(4S)-7-chloro-6-(3-fluoro-6-hydroxy-2-pyridyl)-4-methyl-8-(trifluoromethyl)-4H-imidazo[1,2-a][1,4]benzodiazepin-2-yl]methanone], in assay [1], the Ki is 13 µM, the “γ2/γ1 Selectivity Ratio” value is reported as 280.8 and the LogSel came to 2.45. In assay [2], this molecule returned an inhibitory constant (Ki) of 0.0463 µM. The Ki in assay [2] (setting [3]) worked out at 0.0463 µM. At h-GABA-A α2β2γ1 receptor, the “Efficacy (GABA) %” value is reported as 120% and the “Fold increase h-GABA-A α2β2γ1 oocyte @ 30-fold Ki” value is recorded as 2.20.
Take `Cc1ccc2c(c1Cl)C(c1cc(O)ccc1F)=NCC(=O)N2C` [Example 2, 6-chloro-5-(2-fluoro-5-hydroxy-phenyl)-1,7-dimethyl-3H-1,4-benzodiazepin-2-one]: in assay [1], the Ki stood at 0.0582 µM and the LogSel is reported as 1.59. The molecule further returned an inhibition constant (Ki) in assay [2] of 0.00149 µM. Moreover, in assay [2] (setting [3]), the inhibition constant (Ki) turned out to be 0.00149 µM. At h-GABA-A α2β2γ1 receptor, the “Efficacy (GABA) %” value was 70% and the “Fold increase h-GABA-A α2β2γ1 oocyte @ 30-fold Ki” value came out at 1.70.
On to `O=c1ccn2c(n1)CN=C(c1cc(O)ccc1F)c1c-2ccc(C(F)(F)F)c1Cl` [Example 11, 8-chloro-7-(2-fluoro-5-hydroxy-phenyl)-9-(trifluoromethyl)-5H-pyrimido[1,2-a][1,4]benzodiazepin-3-one], for which, in assay [1], the Ki was 0.359 µM, the “γ2/γ1 Selectivity Ratio” value is 191.3 and the LogSel is 2.28. The inhibitory constant (Ki) in assay [2] was determined as 0.00188 µM. For the same molecule, the Ki in assay [2] (setting [3]) was determined as 0.00188 µM. On h-GABA-A α2β2γ1 receptor, the “Efficacy (GABA) %” value stood at 68% and the “Fold increase h-GABA-A α2β2γ1 oocyte @ 30-fold Ki” value amounted to 1.68.
Turning to `Cc1cn2c(n1)[C@H](C)N=C(c1nc(O)ccc1F)c1c-2ccc(C(F)(F)F)c1Cl` [Example 28, 6-[(4S)-7-chloro-2,4-dimethyl-8-(trifluoromethyl)-4H-imidazo[1,2-a][1,4]benzodiazepin-6-yl]-5-fluoro-pyridin-2-ol], in assay [1], the Ki turned out to be 4.08 µM, the “γ2/γ1 Selectivity Ratio” value is 772.7 and the LogSel was 2.89. Further, the affinity in assay [2] corresponds to a Ki of 0.00528 µM. For the same molecule, the inhibitory constant (Ki) in assay [2] (setting [3]) is 0.00528 µM. At h-GABA-A α2β2γ1 receptor, the “Efficacy (GABA) %” value was found to be 68% and the “Fold increase h-GABA-A α2β2γ1 oocyte @ 30-fold Ki” value was 1.68.
